Test system: not listed separately
Experiment: Partition coefficient (logD)
Details: octanol/water

| Structure (SMILES) | logD |
| --- | --- |
| Fc1ccc(C(OC2CC3CCC(C2)N3CCOCc2cccs2)c2ccc(F)cc2)cc1 (centres undefined) | 4.19 |
| OCCOCCN1C2CCC1CC(OC(c1ccc(F)cc1)c1ccc(F)cc1)C2 (centres undefined) | 2.01 |
| COC(=O)[C@@H]1C2CC[C@@H](C[C@@H]1OC(=O)c1ccccc1)N2C (single isomer, unassigned) [COCAINE] | 1.51 |
| Fc1ccc(C(OC2CC3CCC(C2)N3CCOCCN2CCOCC2)c2ccc(F)cc2)cc1 (centres undefined) | 2.05 |

Biological target: Sodium-dependent dopamine transporter (Rattus norvegicus, UniProt P23977)
Sequence (P23977 whole entry): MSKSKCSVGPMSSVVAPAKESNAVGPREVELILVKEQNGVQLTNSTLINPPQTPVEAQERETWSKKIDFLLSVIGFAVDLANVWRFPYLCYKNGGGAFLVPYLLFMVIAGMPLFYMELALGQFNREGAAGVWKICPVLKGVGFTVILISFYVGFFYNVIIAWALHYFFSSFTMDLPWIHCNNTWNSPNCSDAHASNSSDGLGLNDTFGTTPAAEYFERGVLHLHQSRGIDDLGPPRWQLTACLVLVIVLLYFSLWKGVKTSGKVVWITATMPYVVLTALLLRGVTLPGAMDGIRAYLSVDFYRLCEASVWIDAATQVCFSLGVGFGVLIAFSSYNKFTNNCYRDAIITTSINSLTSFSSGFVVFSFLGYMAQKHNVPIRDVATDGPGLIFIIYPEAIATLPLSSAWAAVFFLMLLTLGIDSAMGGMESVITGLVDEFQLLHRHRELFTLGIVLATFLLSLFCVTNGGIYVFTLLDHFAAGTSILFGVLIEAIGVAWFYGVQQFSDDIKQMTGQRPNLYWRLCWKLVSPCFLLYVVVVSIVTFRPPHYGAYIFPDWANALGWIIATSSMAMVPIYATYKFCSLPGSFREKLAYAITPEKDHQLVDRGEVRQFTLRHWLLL
Experiment: biochemical
Assay type: tissue-based, Brain
Details: not given

| Structure (SMILES) | Ki [µM] |
| --- | --- |
| O=C(NCCN1C2CCC1CC(OC(c1ccc(F)cc1)c1ccc(F)cc1)C2)c1ccccc1 (centres undefined) | 0.0131 |
| Fc1ccc(C(OC2CC3CCC(C2)N3CCOCc2cccs2)c2ccc(F)cc2)cc1 (centres undefined) | 0.0659 |
| OCCOCCN1C2CCC1CC(OC(c1ccc(F)cc1)c1ccc(F)cc1)C2 (centres undefined) | 0.0426 |
| O=C(CCN1[C@@H]2CC[C@H]1C[C@@H](OC(c1ccc(F)cc1)c1ccc(F)cc1)C2)Nc1ccccc1 | 0.0276 |
| Fc1ccc(C(OC2CC3CCC(C2)N3CCCOc2ccccc2)c2ccc(F)cc2)cc1 (centres undefined) | 0.703 |
| Fc1ccc(C(OC2CC3CCC(C2)N3CCOCc2ccccc2)c2ccc(F)cc2)cc1 (centres undefined) | 0.0485 |
| Fc1ccc(C(OC2CC3CCC(C2)N3CCOCCN2CCOCC2)c2ccc(F)cc2)cc1 (centres undefined) | 1.62 |

Biological target: T1, Muscarinic acetylcholine receptor M1 (Rattus norvegicus, UniProt P08482)
T1 sequence (P08482 whole entry): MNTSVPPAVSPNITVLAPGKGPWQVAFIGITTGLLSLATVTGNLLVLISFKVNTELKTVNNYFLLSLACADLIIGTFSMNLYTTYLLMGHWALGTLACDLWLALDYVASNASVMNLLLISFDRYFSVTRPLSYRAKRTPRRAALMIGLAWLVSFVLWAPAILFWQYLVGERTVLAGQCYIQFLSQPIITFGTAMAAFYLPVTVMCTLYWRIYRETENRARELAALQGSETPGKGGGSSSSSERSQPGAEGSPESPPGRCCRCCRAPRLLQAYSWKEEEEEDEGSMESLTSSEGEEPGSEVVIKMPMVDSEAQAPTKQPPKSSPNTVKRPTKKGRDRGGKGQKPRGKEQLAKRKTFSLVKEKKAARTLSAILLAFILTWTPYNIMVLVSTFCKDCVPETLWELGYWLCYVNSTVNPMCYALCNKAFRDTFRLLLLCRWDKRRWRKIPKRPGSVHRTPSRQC
Experiment: Binding affinity at muscarinic M1 receptor in rat brain by [3H]pirenzepine displacement.
Assay type: tissue-based
Details: not given

| Structure (SMILES) | Ki [µM] |
| --- | --- |
| O=C(NCCN1C2CCC1CC(OC(c1ccc(F)cc1)c1ccc(F)cc1)C2)c1ccccc1 (centres undefined) | 0.556 |
| Fc1ccc(C(OC2CC3CCC(C2)N3CCOCc2cccs2)c2ccc(F)cc2)cc1 (centres undefined) | 0.613 |
| OCCOCCN1C2CCC1CC(OC(c1ccc(F)cc1)c1ccc(F)cc1)C2 (centres undefined) | 0.336 |
| O=C(CCN1[C@@H]2CC[C@H]1C[C@@H](OC(c1ccc(F)cc1)c1ccc(F)cc1)C2)Nc1ccccc1 | 3.28 |
| Fc1ccc(C(OC2CC3CCC(C2)N3CCCOc2ccccc2)c2ccc(F)cc2)cc1 (centres undefined) | 9.28 |
| Fc1ccc(C(OC2CC3CCC(C2)N3CCOCc2ccccc2)c2ccc(F)cc2)cc1 (centres undefined) | 0.39 |
| Fc1ccc(C(OC2CC3CCC(C2)N3CCOCCN2CCOCC2)c2ccc(F)cc2)cc1 (centres undefined) | 15.8 |

Biological target: Norepinephrine transporter (Rattus norvegicus, UniProt Q9WTR4)
Sequence (Q9WTR4 whole entry): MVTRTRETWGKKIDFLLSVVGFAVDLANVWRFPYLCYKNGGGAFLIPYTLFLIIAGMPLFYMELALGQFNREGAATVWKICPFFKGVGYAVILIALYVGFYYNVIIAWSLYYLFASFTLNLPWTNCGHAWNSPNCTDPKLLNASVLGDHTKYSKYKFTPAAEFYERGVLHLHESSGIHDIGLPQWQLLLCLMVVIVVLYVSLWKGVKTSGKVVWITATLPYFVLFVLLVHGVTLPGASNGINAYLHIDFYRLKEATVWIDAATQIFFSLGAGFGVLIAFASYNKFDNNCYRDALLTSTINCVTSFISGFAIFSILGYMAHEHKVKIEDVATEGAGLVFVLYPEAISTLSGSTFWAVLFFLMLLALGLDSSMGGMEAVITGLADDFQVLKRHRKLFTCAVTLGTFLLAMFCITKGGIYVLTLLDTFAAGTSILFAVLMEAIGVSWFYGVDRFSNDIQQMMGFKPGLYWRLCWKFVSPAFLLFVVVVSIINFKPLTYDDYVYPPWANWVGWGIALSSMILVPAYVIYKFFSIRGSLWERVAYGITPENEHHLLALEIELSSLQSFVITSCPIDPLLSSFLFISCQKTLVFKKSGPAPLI
Experiment: Displacement of [3H]nisoxetine from norepinephrine transporter (NET) of rat brain
Assay type: tissue-based
Details: not given

| Structure (SMILES) | Ki [µM] |
| --- | --- |
| O=C(NCCN1C2CCC1CC(OC(c1ccc(F)cc1)c1ccc(F)cc1)C2)c1ccccc1 (centres undefined) | 0.637 |
| Fc1ccc(C(OC2CC3CCC(C2)N3CCOCc2cccs2)c2ccc(F)cc2)cc1 (centres undefined) | 3.45 |
| OCCOCCN1C2CCC1CC(OC(c1ccc(F)cc1)c1ccc(F)cc1)C2 (centres undefined) | 3.65 |
| O=C(CCN1[C@@H]2CC[C@H]1C[C@@H](OC(c1ccc(F)cc1)c1ccc(F)cc1)C2)Nc1ccccc1 | 1.42 |
| Fc1ccc(C(OC2CC3CCC(C2)N3CCCOc2ccccc2)c2ccc(F)cc2)cc1 (centres undefined) | 12.1 |
| Fc1ccc(C(OC2CC3CCC(C2)N3CCOCc2ccccc2)c2ccc(F)cc2)cc1 (centres undefined) | 3.06 |
| NCCN1[C@@H]2CC[C@H]1C[C@@H](OC(c1ccc(F)cc1)c1ccc(F)cc1)C2 | 1.42 |
| Fc1ccc(C(OC2CC3CCC(C2)N3CCOCCN2CCOCC2)c2ccc(F)cc2)cc1 (centres undefined) | 28.1 |

Species: Rattus norvegicus
Experiment: Compound was tested for inhibition of [3H]dopamine uptake (DAUI) in rat synaptosomes
Assay type: functional
Details: Brain

| Structure (SMILES) | IC50 [µM] |
| --- | --- |
| O=C(NCCN1C2CCC1CC(OC(c1ccc(F)cc1)c1ccc(F)cc1)C2)c1ccccc1 (centres undefined) | 0.0065 |
| Fc1ccc(C(OC2CC3CCC(C2)N3CCOCc2cccs2)c2ccc(F)cc2)cc1 (centres undefined) | 0.0187 |
| OCCOCCN1C2CCC1CC(OC(c1ccc(F)cc1)c1ccc(F)cc1)C2 (centres undefined) | 0.0489 |
| Fc1ccc(C(OC2CC3CCC(C2)N3CCNCc2ccccc2)c2ccc(F)cc2)cc1 (centres undefined) | 0.0081 |
| O=C(CCN1[C@@H]2CC[C@H]1C[C@@H](OC(c1ccc(F)cc1)c1ccc(F)cc1)C2)Nc1ccccc1 | 0.005 |
| O=C(NCCN1C2CCC1CC(OC(c1ccc(F)cc1)c1ccc(F)cc1)C2)c1cccnc1 (centres undefined) | 0.0142 |
| Fc1ccc(C(OC2CC3CCC(C2)N3CCCOc2ccccc2)c2ccc(F)cc2)cc1 (centres undefined) | 0.227 |
| Fc1ccc(C(OC2CC3CCC(C2)N3CCOCc2ccccc2)c2ccc(F)cc2)cc1 (centres undefined) | 0.0223 |
| NCCN1[C@@H]2CC[C@H]1C[C@@H](OC(c1ccc(F)cc1)c1ccc(F)cc1)C2 | 0.026 |
| Fc1ccc(C(OC2CC3CCC(C2)N3CCOCCN2CCOCC2)c2ccc(F)cc2)cc1 (centres undefined) | 0.659 |

Biological target: Sodium-dependent serotonin transporter (Rattus norvegicus, UniProt P31652)
Sequence (P31652 whole entry): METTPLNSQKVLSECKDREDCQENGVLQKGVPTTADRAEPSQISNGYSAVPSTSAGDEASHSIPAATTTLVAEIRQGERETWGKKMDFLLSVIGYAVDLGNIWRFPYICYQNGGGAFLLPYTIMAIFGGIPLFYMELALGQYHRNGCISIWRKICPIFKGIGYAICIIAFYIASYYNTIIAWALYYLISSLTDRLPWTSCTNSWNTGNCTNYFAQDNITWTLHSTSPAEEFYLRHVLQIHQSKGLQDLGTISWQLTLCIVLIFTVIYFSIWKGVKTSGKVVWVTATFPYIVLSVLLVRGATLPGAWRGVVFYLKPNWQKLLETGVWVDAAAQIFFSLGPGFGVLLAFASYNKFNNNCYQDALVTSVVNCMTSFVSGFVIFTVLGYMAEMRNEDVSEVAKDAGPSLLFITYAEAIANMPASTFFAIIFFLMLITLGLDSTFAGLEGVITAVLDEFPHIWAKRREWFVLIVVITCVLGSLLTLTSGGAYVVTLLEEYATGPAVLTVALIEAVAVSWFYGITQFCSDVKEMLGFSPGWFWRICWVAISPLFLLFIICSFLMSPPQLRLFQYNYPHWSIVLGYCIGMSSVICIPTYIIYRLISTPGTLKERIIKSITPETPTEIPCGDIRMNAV
Experiment: Binding affinity at serotonin transporter in rat brain by [3H]-citalopram displacement.
Assay type: tissue-based
Details: not given

| Structure (SMILES) | Ki [µM] |
| --- | --- |
| O=C(NCCN1C2CCC1CC(OC(c1ccc(F)cc1)c1ccc(F)cc1)C2)c1ccccc1 (centres undefined) | 0.597 |
| Fc1ccc(C(OC2CC3CCC(C2)N3CCOCc2cccs2)c2ccc(F)cc2)cc1 (centres undefined) | 2.09 |
| OCCOCCN1C2CCC1CC(OC(c1ccc(F)cc1)c1ccc(F)cc1)C2 (centres undefined) | 14.3 |
| O=C(CCN1[C@@H]2CC[C@H]1C[C@@H](OC(c1ccc(F)cc1)c1ccc(F)cc1)C2)Nc1ccccc1 | 1.49 |
| Fc1ccc(C(OC2CC3CCC(C2)N3CCCOc2ccccc2)c2ccc(F)cc2)cc1 (centres undefined) | 7.73 |
| Fc1ccc(C(OC2CC3CCC(C2)N3CCOCc2ccccc2)c2ccc(F)cc2)cc1 (centres undefined) | 1.3 |
| NCCN1[C@@H]2CC[C@H]1C[C@@H](OC(c1ccc(F)cc1)c1ccc(F)cc1)C2 | 4.6 |
| Fc1ccc(C(OC2CC3CCC(C2)N3CCOCCN2CCOCC2)c2ccc(F)cc2)cc1 (centres undefined) | 23 |
